Assay results taken from the supplement of paper PMC10307832.

Columns and labels:
Experiment in all cases: relative viability (nuclei count vs DMSO), 5 days (fraction); higher = more cells survive
[1] = compound: COc1cc(Nc2c(C#N)cnc3cc(OCCCN4CCN(C)CC4)c(OC)cc23)c(Cl)cc1Cl [Bosutinib] + Nc1ncn([C@H]2C[C@H](O)[C@@H](CO)O2)c(=O)n1 [Decitabine] (partner 2 µM)
Method in brief: (§1)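 Lung cancer cell lines were pin-tool dosed in 1536-well plates on the day after seeding, with either a lone drug or a fixed anchor-drug dose plus five library-drug doses (not always all listed) in √10 steps. Nuclei were counted on 4× images after 5 days. Relative viability is the ratio of treated-well to vehicle-well nuclei counts, with each value a median of duplicate plates.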

[2] = compound: COc1cc(Nc2c(C#N)cnc3cc(OCCCN4CCN(C)CC4)c(OC)cc23)c(Cl)cc1Cl [Bosutinib] + O=C(CCCCCCC(=O)Nc1ccccc1)NO [Vorinostat] (partner 1 µM)
Method in brief: as §1

[3] = compound: COc1cc(Nc2c(C#N)cnc3cc(OCCCN4CCN(C)CC4)c(OC)cc23)c(Cl)cc1Cl [Bosutinib] + Cc1nc(NC(=O)N2CCC[C@H]2C(N)=O)sc1-c1ccnc(C(C)(C)C(F)(F)F)c1 [Alpelisib] (partner 2 µM)
Method in brief: as §1

[4] = compound: COc1cc(Nc2c(C#N)cnc3cc(OCCCN4CCN(C)CC4)c(OC)cc23)c(Cl)cc1Cl [Bosutinib] + Nc1nc2[nH]cc(CCc3ccc(C(=O)N[C@@H](CCC(=O)O)C(=O)O)cc3)c2c(=O)[nH]1 [Pemetrexed] (partner 0.2 µM)
Method in brief: as §1

[5] = compound: COc1cc(Nc2c(C#N)cnc3cc(OCCCN4CCN(C)CC4)c(OC)cc23)c(Cl)cc1Cl [Bosutinib] + O=C(c1cc(Cc2n[nH]c(=O)c3ccccc23)ccc1F)N1CCN(C(=O)C2CC2)CC1 [Olaparib] (partner 8 µM)
Method in brief: as §1

Row | Cell Line | relative viability ([1]; first compound 0.01 µM) | relative viability ([1]; first compound 0.03162 µM) | relative viability ([1]; first compound 0.1 µM) | relative viability ([1]; first compound 1 µM) | relative viability ([2]; first compound 0.01 µM) | relative viability ([2]; first compound 0.03162 µM) | relative viability ([2]; first compound 0.1 µM) | relative viability ([2]; first compound 1 µM) | relative viability ([3]; first compound 0.01 µM) | relative viability ([3]; first compound 0.03162 µM) | relative viability ([3]; first compound 0.1 µM) | relative viability ([3]; first compound 1 µM) | relative viability ([4]; first compound 0.01 µM) | relative viability ([4]; first compound 0.03162 µM) | relative viability ([4]; first compound 0.1 µM) | relative viability ([4]; first compound 1 µM) | relative viability ([5]; first compound 0.01 µM) | relative viability ([5]; first compound 0.03162 µM) | relative viability ([5]; first compound 0.1 µM) | relative viability ([5]; first compound 1 µM)
1 | NCI-H23 | 0.35 | 0.305 | 0.321 | 0.287 | 0.779 | 0.622 | 0.651 | 0.619 | 0.674 | 0.666 | 0.519 | 0.546 | 0.673 | 0.644 | 0.732 | 0.609 | 0.326 | 0.328 | 0.348 | 0.278
2 | HCC-827 | 0.306 | 0.37 | 0.404 | 0.186 | 0.811 | 0.903 | 1.04 | 0.75 | 0.972 | 0.971 | 1.03 | 0.576 | 0.248 | 0.282 | 0.273 | 0.231 | 0.609 | 0.817 | 0.626 | 0.217
3 | HCC-78 | 0.768 | 0.698 | 0.761 | 0.676 | 0.469 | 0.362 | 0.444 | 0.356 | 0.349 | 0.31 | 0.393 | 0.32 | 0.893 | 0.916 | 0.936 | 0.859 | 0.722 | 0.937 | 0.888 | 0.687
4 | UMC-11 | 0.661 | 0.555 | 0.596 | 0.535 | 0.354 | 0.383 | 0.43 | 0.364 | 1 | 1.04 | 0.934 | 0.847 | 0.795 | 0.755 | 0.807 | 0.707 | 0.64 | 0.672 | 0.248 | 0.686
5 | NCI-H1975 | 0.45 | 0.369 | 0.398 | 0.371 | 0.654 | 0.684 | 0.684 | 0.673 | 0.615 | 0.688 | 0.67 | 0.433 | 0.287 | 0.289 | 0.292 | 0.281 | 0.71 | 0.784 | 0.794 | 0.56
6 | COR-L23 | 0.432 | 0.421 | 0.414 | 0.454 | 0.535 | 0.553 | 0.431 | 0.561 | 0.803 | 0.799 | 0.747 | 0.836 | 0.2 | 0.205 | 0.224 | 0.218 | 0.341 | 0.353 | 0.348 | 0.309
7 | SW 1573 | 0.606 | 0.48 | 0.557 | 0.451 | 0.89 | 0.843 | 0.593 | 0.788 | 0.834 | 0.787 | 0.767 | 0.65 | 0.796 | 0.791 | 0.911 | 0.838 | 0.533 | 0.457 | 0.528 | 0.484
8 | NCI-H2126 | 0.548 | 0.537 | 0.609 | 0.588 | 0.71 | 0.799 | 0.858 | 0.722 | 0.712 | 0.781 | 0.733 | 0.685 | 0.659 | 0.645 | 0.694 | 0.658 | 0.892 | 0.885 | 0.916 | 0.936
